Laboratory results taken from US9676782B2, “Substituted pyrazolo[1,5-a]pyrazines as negative allosteric modulators of metabotropic glutamate receptor 3” (Vanderbilt University, priority 2014, dated 2017).
Like-named read-outs stand apart in the source and are kept apart here.

Columns and labels:
rat mGlu5 = rat mGlu5 (Rattus norvegicus (Rat), UniProt P31424); experiment: mGlu5 Ca2+ flux assay; type: cell-based; conditions: for Fold selectivity (mGlu3 vs. mGlu5): ratio of rat mGlu5 EC50 or IC50 to rat mGlu3 IC50; for Emax at 30 µM: read-out: rat mGlu5 Glu max (%); for IC50: glutamate EC80
Method: (§1) The cells were grown overnight at 37° C. in the presence of 5% CO2. […] Dye was removed, 20 μL of assay buffer was added, and the plate was incubated for 5 minutes at room temperature. Ca^2+ flux was measured using the Functional Drug Screening System (FDSS7000, Hamamatsu, Japan). […] All test compounds were dissolved and diluted to a concentration of 10 mM in 100% DMSO. […] Calcium fluorescence measures were recorded as fold over basal fluorescence; raw data was then normalized to the maximal response to glutamate. […] The raw data file containing all time points was used as the data source in the analysis template. This was saved by the FDSS as a tab-delimited text file. Data were normalized using a static ratio function (F/F0) for each measurement of the total 360 values per well divided by each well's initial value. […] This is sufficient time to capture the peak amplitude of the cellular calcium response. […] EC50 values for test compounds were generated by fitting the normalized values versus the log of the test compound concentration (in mol/L) using a 4 parameter logistic equation where none of the parameters were fixed. Each of the three values collected at each concentration of test compound were weighted evenly.

rat mGlu3 = rat mGlu3 (Rattus norvegicus (Rat), UniProt P31422); experiment: mGlu3 Ca2+ flux assay; type: cell-based; conditions: for remaining activity at 30 µM: amplitude of response at 30 μM test compound as % of maximal response to glutamate, read-out: rat mGlu3 Glu max (%); for mGlu3 Glu max: response at 30 μM compound as percentage of maximal glutamate response
Method: as §1, with “for 10” for “for 5”

[1] = read-out: rat mGlu5 EC50 or IC50
[2] = NAM potency, decrease of glutamate EC80 response, >30,000 = no measurable activity, >10,000 = no plateau, read-out: rat mGlu3 IC50
[3] = PAM, amplitude of response at 30 μM test compound as % of maximal response to glutamate
[4] = compound noted as NAM or partial antagonist (PAnt) at mGlu5, read-out: rat mGlu5 EC50 or IC50
[5] = compound noted as NAM or partial antagonist (PAnt) at mGlu5, response at 30 μM as % of maximal glutamate response

Sequence of rat mGlu3 (P31422 23-879): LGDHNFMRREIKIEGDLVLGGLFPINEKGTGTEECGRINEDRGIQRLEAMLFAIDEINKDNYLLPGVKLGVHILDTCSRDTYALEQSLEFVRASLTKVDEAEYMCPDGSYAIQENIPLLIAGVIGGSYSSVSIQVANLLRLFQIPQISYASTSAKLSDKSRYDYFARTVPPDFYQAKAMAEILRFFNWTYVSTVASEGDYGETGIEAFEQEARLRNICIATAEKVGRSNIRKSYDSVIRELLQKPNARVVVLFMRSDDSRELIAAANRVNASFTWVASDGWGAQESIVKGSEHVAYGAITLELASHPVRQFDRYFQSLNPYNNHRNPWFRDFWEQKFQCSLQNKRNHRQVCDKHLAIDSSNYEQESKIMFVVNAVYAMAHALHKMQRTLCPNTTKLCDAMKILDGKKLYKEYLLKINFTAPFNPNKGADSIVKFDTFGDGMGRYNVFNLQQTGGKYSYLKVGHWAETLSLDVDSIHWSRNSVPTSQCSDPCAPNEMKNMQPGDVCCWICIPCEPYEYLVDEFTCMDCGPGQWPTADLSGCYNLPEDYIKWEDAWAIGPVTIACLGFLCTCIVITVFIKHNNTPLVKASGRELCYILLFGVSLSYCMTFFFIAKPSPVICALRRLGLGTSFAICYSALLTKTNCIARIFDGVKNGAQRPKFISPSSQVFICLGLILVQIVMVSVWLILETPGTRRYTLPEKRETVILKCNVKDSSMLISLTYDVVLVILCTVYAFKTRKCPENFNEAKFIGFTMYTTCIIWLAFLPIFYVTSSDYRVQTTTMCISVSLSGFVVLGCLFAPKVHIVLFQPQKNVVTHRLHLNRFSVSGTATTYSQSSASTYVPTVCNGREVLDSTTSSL
Sequence of rat mGlu5 (P31424 21-1203): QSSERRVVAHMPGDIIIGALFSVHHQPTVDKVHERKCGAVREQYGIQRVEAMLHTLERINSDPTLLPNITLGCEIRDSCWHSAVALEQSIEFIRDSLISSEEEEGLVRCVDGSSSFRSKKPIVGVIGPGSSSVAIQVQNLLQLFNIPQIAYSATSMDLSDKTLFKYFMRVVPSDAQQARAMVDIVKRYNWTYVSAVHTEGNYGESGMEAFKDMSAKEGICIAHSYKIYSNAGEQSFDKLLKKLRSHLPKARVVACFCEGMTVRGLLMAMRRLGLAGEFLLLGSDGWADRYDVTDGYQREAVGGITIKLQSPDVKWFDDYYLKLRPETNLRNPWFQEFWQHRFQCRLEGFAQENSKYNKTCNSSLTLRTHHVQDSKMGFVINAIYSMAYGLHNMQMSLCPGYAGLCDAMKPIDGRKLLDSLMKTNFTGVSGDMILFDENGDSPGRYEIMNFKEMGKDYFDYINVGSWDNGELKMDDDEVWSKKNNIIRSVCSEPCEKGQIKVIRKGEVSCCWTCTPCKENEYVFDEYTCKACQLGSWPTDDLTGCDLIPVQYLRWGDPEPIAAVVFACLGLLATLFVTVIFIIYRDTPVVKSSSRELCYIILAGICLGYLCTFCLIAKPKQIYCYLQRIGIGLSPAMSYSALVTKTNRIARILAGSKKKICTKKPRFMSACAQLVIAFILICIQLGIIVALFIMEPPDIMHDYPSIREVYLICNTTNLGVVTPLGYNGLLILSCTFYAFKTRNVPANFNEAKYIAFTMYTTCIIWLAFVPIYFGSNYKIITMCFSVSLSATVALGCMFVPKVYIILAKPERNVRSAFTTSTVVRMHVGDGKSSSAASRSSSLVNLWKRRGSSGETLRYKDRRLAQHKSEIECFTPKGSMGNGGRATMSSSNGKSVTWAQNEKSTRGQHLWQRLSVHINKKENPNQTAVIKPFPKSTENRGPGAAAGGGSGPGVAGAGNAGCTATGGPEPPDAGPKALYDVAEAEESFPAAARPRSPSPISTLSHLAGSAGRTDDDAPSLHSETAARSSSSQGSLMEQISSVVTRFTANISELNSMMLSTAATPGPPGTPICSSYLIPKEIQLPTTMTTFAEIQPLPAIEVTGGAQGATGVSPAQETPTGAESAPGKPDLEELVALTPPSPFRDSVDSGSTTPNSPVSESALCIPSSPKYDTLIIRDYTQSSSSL

Row | Compound | Fold selectivity (mGlu3 vs. mGlu5) (rat mGlu5) | EC50 (rat mGlu5; [1]) [µM] | IC50 (rat mGlu3; [2]) [nM] | remaining activity at 30 µM (rat mGlu3) [%] | other results
1 | O=C1c2cc(CNc3ccc(OC(F)F)cc3)nn2CCN1c1ccc(F)cc1 [Compound 20, 2-(((4-(difluoromethoxy)phenyl)amino)methyl)-5-(4-fluorophenyl)-6,7-dihydropyrazolo[1,5-a]pyrazin-4(5H)-one] | >42 | > 30 | 709 | 2.9 | –
2 | C[C@H]1CN(c2ccc(F)cc2)C(=O)c2cc(CNc3cc(F)ccc3F)nn21 [Compound 71, (S)-2-(((2,5-difluorophenyl)amino)methyl)-5-(4-fluorophenyl)-7-methyl-6,7-dihydropyrazolo[1,5-a]pyrazin-4(5H)-one] | 7.33 | 9.6 | 1310 | 1.6 | Emax at 30 µM (rat mGlu5; [3]): 76.6%
3 | COc1ccc(N(C)Cc2cc3n(n2)CCN(c2c(F)cc(Cl)cc2F)C3=O)cc1 [Compound 128, 5-(4-chloro-2,6-difluorophenyl)-2-(((4-methoxyphenyl)(methyl)amino)methyl)-6,7-dihydropyrazolo[1,5-a]pyrazin-4(5H)-one] | >16 | > 30 | 1860 | 1.8 | –
4 | O=C1c2cc(CNc3ccc(F)cn3)nn2CCN1c1ccc(F)cc1 [Compound 155, 5-(4-fluorophenyl)-2-(((5-fluoropyridin-2-yl)amino)methyl)-6,7-dihydropyrazolo[1,5-a]pyrazin-4(5H)-one] | >6.8 | – | 1460 | 1.5 | IC50 (rat mGlu5; [4]): > 10 µM; Emax at 30 µM (rat mGlu5; [5]): 11.3%
5 | C[C@@H]1CN(c2ccc(F)cc2)C(=O)c2cc(CNc3cc(F)ccc3F)nn21 [Compound 70, (R)-2-(((2,5-difluorophenyl)amino)methyl)-5-(4-fluorophenyl)-7-methyl-6,7-dihydropyrazolo[1,5-a]pyrazin-4(5H)-one] | >8.7 | > 10 | 1140 | 2.67 | Emax at 30 µM (rat mGlu5; [3]): 57.5%
6 | COCc1ccc(N2CCn3nc(CN(C)c4ccc(OC)cc4)cc3C2=O)cc1 [Compound 120, 5-(4-(methoxymethyl)phenyl)-2-(((4-methoxyphenyl)(methyl)amino)methyl)-6,7-dihydropyrazolo[1,5-a]pyrazin-4(5H)-one] | >10 | > 30 | – | 1.48 | IC50 (rat mGlu3; read-out: rat mGlu3 IC50): 2880 nM
7 | C[C@H]1CN(c2ccc(F)cc2)C(=O)c2cc(CNc3cccc(OC(F)F)c3)nn21 [Compound 55, (S)-2-(((3-(difluoromethoxy)phenyl)amino)methyl)-5-(4-fluorophenyl)-7-methyl-6,7-dihydropyrazolo[1,5-a]pyrazin-4(5H)-one] | >5.9 | > 10 | 1670 | 1.85 | Emax at 30 µM (rat mGlu5; [3]): 28.8%
8 | O=C1c2cc(CNc3cc(F)cc(F)c3)nn2CCN1c1ccc(F)cc1 [Compound 30, 2-(((3,5-difluorophenyl)amino)methyl)-5-(4-fluorophenyl)-6,7-dihydropyrazolo[1,5-a]pyrazin-4(5H)-one] | 8.73 | 6.44 | 738 | 2.71 | Emax at 30 µM (rat mGlu5; [3]): 102%
9 | CN(Cc1cc2n(n1)CCN(c1ccc(F)cc1)C2=O)c1ccccc1 [drawing 29 X = NMe] | – | – | – | – | EC50 (rat mGlu5; Table 2 compounds with X = NMe, read-out: mGlu5 EC50): > 30 µM; IC50 (rat mGlu3; Table 2 compounds with X = NMe, read-out: mGlu3 IC50): 1220 nM; mGlu3 Glu max (rat mGlu3; Table 2 compounds with X = NMe): 1%
10 | O=C1c2cc(CNc3ncccc3C(F)(F)F)nn2CCN1c1ccc(F)cc1 [Compound 162, 5-(4-fluorophenyl)-2-(((3-(trifluoromethyl)pyridin-2-yl)amino)methyl)-6,7-dihydropyrazolo[1,5-a]pyrazin-4(5H)-one] | >7.8 | > 30 | 3840 | 0.79 | –
11 | CC(Nc1ccc(F)cc1)c1cc2n(n1)CCN(c1ccc(F)cc1)C2=O (stereo not drawn) [Compound 171, 5-(4-fluorophenyl)-2-(1-((4-fluorophenyl)amino)ethyl)-6,7-dihydropyrazolo[1,5-a]pyrazin-4(5H)-one] | >13 | > 30 | 2150 | 0.39 | –
12 | O=C1c2cc(CNc3ccc(OC(F)F)cc3F)nn2CCN1c1cc(Cl)ccn1 [Compound 139, 5-(4-chloropyridin-2-yl)-2-(((4-(difluoromethoxy)-2-fluorophenyl)amino)methyl)-6,7-dihydropyrazolo[1,5-a]pyrazin-4(5H)-one] | >17 | > 30 | 1760 | 2.59 | –
13 | COc1ccc(N(C)Cc2cc3n(n2)CCN(c2ccccc2F)C3=O)cc1 [Compound 105, 5-(2-fluorophenyl)-2-(((4-methoxyphenyl)(methyl)amino)methyl)-6,7-dihydropyrazolo[1,5-a]pyrazin-4(5H)-one] | >34 | > 30 | 871 | 2.05 | –
14 | COc1ccc(N(C)Cc2cc3n(n2)CCN(c2cc(F)cc(Cl)c2)C3=O)cc1 [Compound 131, 5-(3-chloro-5-fluorophenyl)-2-(((4-methoxyphenyl)(methyl)amino)methyl)-6,7-dihydropyrazolo[1,5-a]pyrazin-4(5H)-one] | >21 | > 30 | – | 1.95 | IC50 (rat mGlu3; read-out: rat mGlu3 IC50): 1370 nM
15 | COc1ccc(N(C)Cc2cc3n(n2)CCN(c2cccc(F)c2Cl)C3=O)cc1 [Compound 126, 5-(2-chloro-3-fluorophenyl)-2-(((4-methoxyphenyl)(methyl)amino)methyl)-6,7-dihydropyrazolo[1,5-a]pyrazin-4(5H)-one] | >6.2 | – | 1600 | 1.5 | IC50 (rat mGlu5; [4]): > 10 µM; Emax at 30 µM (rat mGlu5; [5]): 56.8%
16 | COc1ccc(N(C)Cc2cc3n(n2)CCN(c2cc(F)cc(OC)c2)C3=O)cc1 [Compound 132, 5-(3-fluoro-5-methoxyphenyl)-2-(((4-methoxyphenyl)(methyl)amino)methyl)-6,7-dihydropyrazolo[1,5-a]pyrazin-4(5H)-one] | >22 | > 30 | 1340 | 1.5 | –
17 | COc1ccc(N(C)Cc2cc3n(n2)CCN(c2ccc(OC(F)F)cc2)C3=O)cc1 [Compound 123, 5-(4-(difluoromethoxy)phenyl)-2-(((4-methoxyphenyl)(methyl)amino)methyl)-6,7-dihydropyrazolo[1,5-a]pyrazin-4(5H)-one] | >29 | > 30 | 1030 | 0.3 | –
18 | CCN(Cc1cc2n(n1)CCN(c1ccc(F)c(F)c1)C2=O)c1ccc(OC)cc1 [Compound 168, 5-(3,4-difluorophenyl)-2-((ethyl(4-methoxyphenyl)amino)methyl)-6,7-dihydropyrazolo[1,5-a]pyrazin-4(5H)-one] | >14 | > 30 | – | 1.95 | IC50 (rat mGlu3; read-out: rat mGlu3 IC50): 2120 nM
19 | CC(C)(C)c1ccc(NCc2cc3n(n2)CCN(c2ccc(F)cc2)C3=O)cc1 [Compound 24, 2-(((4-(tert-butyl)phenyl)amino)methyl)-5-(4-fluorophenyl)-6,7-dihydropyrazolo[1,5-a]pyrazin-4(5H)-one] | – | – | – | – | IC50 (rat mGlu3; read-out: rat mGlu3 IC50): > 30000 nM
20 | O=C1c2cc(CNc3ccc(Br)cc3)nn2CCN1c1ccc(F)cc1 [Compound 16, 2-(((4-bromophenyl)amino)methyl)-5-(4-fluorophenyl)-6,7-dihydropyrazolo[1,5-a]pyrazin-4(5H)-one] | – | – | – | – | IC50 (rat mGlu3; read-out: rat mGlu3 IC50): > 30000 nM
21 | O=C1c2cc(CNc3ccc(F)cc3)nn2CCN1c1ccc(F)cc1 [drawing 32 X = NH] | – | – | – | – | IC50 (rat mGlu3; Table 2 compounds with X = NH, read-out: mGlu3 IC50): 1150 nM; mGlu3 Glu max (rat mGlu3; Table 2 compounds with X = NH): 2%
